Measured values: US20240101544A1, “INHIBITORS OF QPCTL AND QPCT” (priority 2022, published 2024)

Legend:
[1] = biological target: T1, QPCTL (Homo sapiens (Human), UniProt Q9NXS2); experiment: QPCTL Enzymatic Activity Assay (coupled-enzyme fluorescent assay, H-Gln-AMC substrate); assay type: biochemical; conditions: recombinant truncated human QPCTL 10-12 nM, 10 μM H-Gln-AMC; read-out: QPCTL Inhibition IC50
Target sequence in this assay (Q9NXS2 53-382): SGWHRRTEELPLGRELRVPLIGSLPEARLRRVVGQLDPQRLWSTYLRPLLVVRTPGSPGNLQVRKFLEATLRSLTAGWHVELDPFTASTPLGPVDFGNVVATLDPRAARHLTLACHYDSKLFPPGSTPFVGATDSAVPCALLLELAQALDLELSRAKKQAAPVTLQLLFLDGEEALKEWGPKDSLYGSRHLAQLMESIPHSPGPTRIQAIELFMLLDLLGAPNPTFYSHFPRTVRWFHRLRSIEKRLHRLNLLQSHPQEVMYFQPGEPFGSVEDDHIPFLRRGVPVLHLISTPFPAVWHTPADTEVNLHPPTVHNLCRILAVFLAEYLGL

[2] = biological target: T1, QPCTL; experiment: Inhibition of Cellular QPCTL Activity - Imaging Assay, CC2C6 anti-CD47 staining of DLD-1 cells; assay type: cell-based; conditions: 72 hours, CC2C6 anti-CD47 high-content imaging
Protocol: Inhibition of Cellular QPCTL Activity—Imaging Assay
The cells were incubated for 72 hours at 37° C. and 5% CO2. […] After primary antibody staining, the cells were fixed with 4% paraformaldehyde in the incubation buffer for 15 minutes at room temperature. […] Cells were analyzed on a ImageXpress Pico Automated Cell Imaging System (Molecular Devices) using 10× objective (3×3 fields).
Target sequence in this assay (Q9NXS2 whole entry, the tested form may be a part): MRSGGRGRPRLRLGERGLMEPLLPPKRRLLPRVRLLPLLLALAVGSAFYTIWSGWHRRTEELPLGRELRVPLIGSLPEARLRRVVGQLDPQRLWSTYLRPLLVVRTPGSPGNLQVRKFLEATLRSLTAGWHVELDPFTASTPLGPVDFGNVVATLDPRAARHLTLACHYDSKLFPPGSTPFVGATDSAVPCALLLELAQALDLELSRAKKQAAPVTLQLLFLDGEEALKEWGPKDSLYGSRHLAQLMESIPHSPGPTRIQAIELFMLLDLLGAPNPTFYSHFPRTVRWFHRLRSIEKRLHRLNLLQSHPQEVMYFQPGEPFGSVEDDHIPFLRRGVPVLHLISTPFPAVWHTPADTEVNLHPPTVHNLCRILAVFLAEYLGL

[3] = biological target: T1, QPCTL; experiment: Inhibition of Cellular QPCTL Activity - FACS flow cytometry, CC2C6 anti-CD47 staining of Ramos cells; assay type: cell-based; conditions: Ramos human Burkitts Lymphoma cells, 72-96 hours, % CC2C6-positive cells
Protocol: Inhibition of Cellular QPCTL Activity—Fluorescence-Activated Cell Sorting (FACS) Flow Cytometry
The cells were incubated for 72-96 hours at 37° C. and 5% CO2. At the end of incubation period, cells were transferred to tubes and spun down at 1200 rpm for 5 minutes. […] After antibody staining, the cells were washed with FACS buffer then stained with SYTOX™ Blue dead cell stain at a dilution of 1:1000. Cells were analyzed on a BD FACS Melody and a positive staining gate on live cells was set using the 0.1% DMSO controls. […] Flow cytometry data were analyzed by FlowJo software and concentration-response-curves and IC50 values were generated using Collaborative Drug Discovery software.
Target sequence in this assay (Q9NXS2 whole entry, the tested form may be a part): as above

[4] = biological target: QPCT (rhQPCT) (Homo sapiens (Human), UniProt Q16769); experiment: QPCT Enzymatic Activity Assay (coupled-enzyme fluorescent assay, H-Gln-AMC substrate); assay type: biochemical; conditions: rhQPCT 10-12 nM, 10 μM H-Gln-AMC; read-out: QPCT Inhibition IC50
Procedure, shortened: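 Coupled assay: recombinant human QPCT converts H-Gln-AMC (10 μM final) to pyroglutamyl-AMC, 60 min at 37 °C, stopped by boiling; PGPEP-1 then releases AMC.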

Measured: IC50

Sequence of QPCT (rhQPCT) (Q16769 29-361): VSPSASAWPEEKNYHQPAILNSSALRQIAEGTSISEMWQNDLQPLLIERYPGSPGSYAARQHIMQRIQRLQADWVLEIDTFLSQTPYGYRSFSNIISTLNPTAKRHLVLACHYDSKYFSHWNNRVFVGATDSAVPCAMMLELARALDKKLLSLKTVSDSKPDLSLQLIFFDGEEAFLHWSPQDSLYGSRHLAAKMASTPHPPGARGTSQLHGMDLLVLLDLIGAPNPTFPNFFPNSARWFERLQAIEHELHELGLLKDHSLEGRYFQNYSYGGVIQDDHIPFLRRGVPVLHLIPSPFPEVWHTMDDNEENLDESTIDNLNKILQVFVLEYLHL

Cn1cnnc1C1CCN(c2c(C#N)ccc(F)c2-c2ccc(F)nc2)CC1 [Example 38, 4-fluoro-3-(6-fluoropyridin-3-yl)-2-[4-(4-methyl-4H-1,2,4-triazol-3-yl)piperidin-1-yl]benzonitrile]
< 100 nM: all assays above
